Patent publication US20240025906A1 (NEURON23, INC., priority 2022, published 2024)
Like-named read-outs stand apart in the source and are kept apart here.

Columns and labels:
TYK2 JH2 = target: T1, TYK2 JH2 (Homo sapiens, UniProt P29597); test: TYK2 JH2 binding assay (KINOMEscan KdELECT competitive binding); conditions: TYK2 JH2 domain
T1 construct: purchased DiscoverX (KINOMEscan KdELECT service); host or cells: E. coli BL21-derived (T7 phage display) or HEK-293
In short: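 Test compounds were titrated in 11 three-fold steps against JH2 fragment captured on ligand-loaded magnetic beads, with 1 h incubation at room temperature and DMSO at 0.9%. Eluted kinase was quantified by qPCR, and Kd was fitted from the dose series.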

[1] = test system: JAK1/TYK2 pSTAT5 (Tyr694/699) in THP-1 cell line; test: IFNa-stimulated JAK1/TYK2 pSTAT5 (Tyr694/699) inhibition cellular assay, AlphaLISA; type: cell-based; conditions: Homo sapiens, THP-1 cells, IFNa-stimulated, AlphaLISA (Assay B)
In short: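 pSTAT5 (Tyr694/699) in lysates quantified by AlphaLISA (615 nm) after 30 min IFNa stimulation (100 ng/mL stock) of THP-1 cells. The cells, 2e4 per well in HBSS, had first been exposed 1 h at 37° C. to eight 6-fold compound dilutions, 10000 down to 0.04 nM final. IC50 fitted by 4PL regression, bottom 0, Hill slope −1.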

[2] = KINOMEscan KdELECT (Assay A), read-out: Biochemical TYK2_JH2_Kd
[3] = read-out: Cellular THP1_IFNa-pSTATS_IC50
[4] = KINOMEscan KdELECT (Assay A), read-out: Biochemical TYK2_DiscoverX_JH2_BND_Kd
[5] = read-out: Cellular_THP1_IFNa-pSTATS_TYK2
[6] = DiscoverX KINOMEscan KdELECT (Assay A), read-out: Biochemical TYK2_DiscoverX_JH2_BND_Kd

T1 sequence (P29597 589-875 limits assumed): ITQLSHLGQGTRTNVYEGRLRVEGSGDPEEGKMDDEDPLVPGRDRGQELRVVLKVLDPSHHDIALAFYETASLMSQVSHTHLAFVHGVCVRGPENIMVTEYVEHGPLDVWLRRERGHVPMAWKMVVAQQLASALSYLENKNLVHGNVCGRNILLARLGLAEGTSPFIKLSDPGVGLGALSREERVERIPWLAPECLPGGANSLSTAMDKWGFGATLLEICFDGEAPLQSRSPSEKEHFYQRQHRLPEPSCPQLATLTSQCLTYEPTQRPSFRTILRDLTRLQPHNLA

| Compound | Kd (TYK2 JH2; [2]) [nM] | IC50 [1, 3] [nM] | Kd (TYK2 JH2; [4]) [nM] | IC50 [1, 5] [nM] | Kd (TYK2 JH2; [6]) [nM] |
| --- | --- | --- | --- | --- | --- |
| CNc1ncc(CC(F)(F)F)c2cc(NC(=O)C3CC3)ncc12 [Example 88, N-(8-(methylamino)-5-(2,2,2-trifluoroethyl)-2,7-naphthyridin-3-yl)cyclopropanecarboxamide] | ≤ 100 | > 500 |  |  |  |
| CNc1ncc(-c2nc3cc(OC)ccc3o2)c2cc(Nc3cc(C)n(C)n3)ncc12 [Example 376, N^6-(1,5-dimethyl-1H-pyrazol-3-yl)-4-(5-methoxybenzo[d]oxazol-2-yl)-N^1-methyl-2,7-naphthyridine-1,6-diamine] |  |  |  | ≤ 500 | ≤ 100 |
| CNc1ncc(C#Cc2ccncc2CO)c2cc(NC(=O)C3CC3)ncc12 [Example 669, N-(5-((3-(hydroxymethyl)pyridin-4-yl)ethynyl)-8-(methylamino)-2,7-naphthyridin-3-yl)cyclopropanecarboxamide] |  |  | ≤ 100 | ≤ 500 |  |
| CNc1ncc(C#Cc2ccc(C(C)(F)F)cc2)c2cc(NC(=O)C3CC3)ncc12 [Example 655] |  |  | ≤ 100 | ≤ 500 |  |
| CNc1nc(CO)c(C#Cc2ccc(OC)cn2)c2cc(NC(=O)C3CC3)ncc12 [Example 800, N-(6-(hydroxymethyl)-5-((5-methoxypyridin-2-yl)ethynyl)-8-(methylamino)-2,7-naphthyridin-3-yl)cyclopropanecarboxamide] |  |  | ≤ 100 | ≤ 500 |  |
| CNc1ncc(C#Cc2ccc(OC)cn2)c2c(Cl)c(NC(=O)C3CC3)ncc12 [Example 889, N-(4-chloro-5-((5-methoxypyridin-2-yl)ethynyl)-8-(methylamino)-2,7-naphthyridin-3-yl)cyclopropanecarboxamide] |  |  | ≤ 100 | > 500 |  |
| CNc1ncc(C#Cc2ccc(OC3(C)COC3)cc2)c2cc(NC(=O)C3CC3)ncc12 [Example 706, N-(8-(methylamino)-5-((4-((3-methyloxetan-3-yl)oxy)phenyl)ethynyl)-2,7-naphthyridin-3-yl)cyclopropanecarboxamide] |  |  | ≤ 100 | ≤ 500 |  |
| CNc1ncc(C#Cc2ccc(OC)cn2)c2cc(NC(=O)C3(F)CC3)ncc12 [Example 743, 1-fluoro-N-(5-((5-methoxypyridin-2-yl)ethynyl)-8-(methylamino)-2,7-naphthyridin-3-yl)cyclopropane-1-carboxamide] |  |  | ≤ 100 | ≤ 500 |  |

Now from value to compound:

| Kd (TYK2 JH2; [2]) [nM] | IC50 [1, 3] [nM] | Kd (TYK2 JH2; [4]) [nM] | IC50 [1, 5] [nM] | Kd (TYK2 JH2; [6]) [nM] | Compound |
| --- | --- | --- | --- | --- | --- |
| ≤ 100 | > 500 |  |  |  | CNc1ncc(-c2ccc(C(=O)C3CC3)cc2)c2cc(NC(=O)C3CC3)ncc12 [Example 144, N-(5-(4-(cyclopropanecarbonyl)phenyl)-8-(methylamino)-2,7-naphthyridin-3-yl)cyclopropanecarboxamide] |
|  |  | ≤ 100 | ≤ 500 |  | CNc1ncc(C#Cc2ccc3nnn(CCOC)c3c2)c2cc(NC(=O)C3CC3)ncc12 [Example 682, N-(5-((1-(2-methoxyethyl)-1H-benzo[d][1,2,3]triazol-6-yl)ethynyl)-8-(methylamino)-2,7-naphthyridin-3-yl)cyclopropanecarboxamide] |
|  |  |  | ≤ 500 | ≤ 100 | CNc1ncc(-c2nc3ccc(N4CC(OC)C4)cc3o2)c2cc(NC(=O)C3CC3)ncc12 [Example 274, N-(5-(6-(3-methoxyazetidin-1-yl)benzo[d]oxazol-2-yl)-8-(methylamino)-2,7-naphthyridin-3-yl)cyclopropanecarboxamide] |
| ≤ 100 | > 500 |  |  |  | CNc1ncc(-c2csc(C)n2)c2cc(NC(=O)C3CC3)ncc12 [Example 81, N-(8-(methylamino)-5-(2-methylthiazol-4-yl)-2,7-naphthyridin-3-yl)cyclopropanecarboxamide] |
|  |  |  | ≤ 500 | ≤ 100 | CNc1ncc(-c2nc3cc(N4CCOC(CO)C4)ccc3o2)c2cc(NC(=O)C3CC3)ncc12 (centres unmarked) [Example 333, N-(5-(5-(2-(hydroxymethyl)morpholino)benzo[d]oxazol-2-yl)-8-(methylamino)-2,7-naphthyridin-3-yl)cyclopropanecarboxamide] |
